Assay results as given in ChEMBL document CHEMBL1201862, “PubChem BioAssay data set” (2004).
Calls of active or inactive are those of the source.

What was measured:
[1] = target: T1, Microphthalmia-associated transcription factor (Homo sapiens, UniProt O75030); assay: reducers of TRPM1 reporter luminescence, concentration series – cell-based, SK-MEL-5, cherry-picked, set 3, MITF inhibitor project, dose response (AID 493073); assay type: functional;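 note: SK-MEL-5 melanoma cells with luciferase driven by the MITF target TRPM1 promoter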
T1 sequence (O75030 whole entry): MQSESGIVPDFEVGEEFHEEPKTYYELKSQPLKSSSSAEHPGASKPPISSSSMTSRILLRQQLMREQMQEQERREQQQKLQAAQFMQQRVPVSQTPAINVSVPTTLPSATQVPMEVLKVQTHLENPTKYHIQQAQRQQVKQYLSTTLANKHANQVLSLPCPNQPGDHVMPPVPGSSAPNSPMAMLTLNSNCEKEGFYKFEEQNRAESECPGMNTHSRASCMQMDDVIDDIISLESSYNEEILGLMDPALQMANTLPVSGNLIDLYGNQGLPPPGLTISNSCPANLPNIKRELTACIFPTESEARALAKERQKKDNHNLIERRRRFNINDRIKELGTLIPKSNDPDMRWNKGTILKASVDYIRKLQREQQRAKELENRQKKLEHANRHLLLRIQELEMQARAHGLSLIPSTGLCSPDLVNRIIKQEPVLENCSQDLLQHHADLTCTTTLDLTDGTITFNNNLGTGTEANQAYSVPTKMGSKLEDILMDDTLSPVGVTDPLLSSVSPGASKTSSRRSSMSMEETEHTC

[2] = Luminescent dose response cell-based high throughput screening assay for inhibitors of the Janus kinase 2 mutant JAK2V617F. [Related pubchem assays: 1446 (Primary screen.), 1521 (Confirmation assay.), 1486 (Counter screen.)]; assay type: functional
[3] = target: Neurotensin receptor type 1 (Homo sapiens, UniProt P30989); assay type: functional;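 note: Image-based confirmatory dose-response assay measuring agonist activity at NTR1; NTR1-expressing U2OS osteosarcoma cells imaged for beta-arrestin GFP spot formation; agonist potency where compounds increase beta-arrestin recruitment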
Chain of Neurotensin receptor type 1 (P30989 whole entry): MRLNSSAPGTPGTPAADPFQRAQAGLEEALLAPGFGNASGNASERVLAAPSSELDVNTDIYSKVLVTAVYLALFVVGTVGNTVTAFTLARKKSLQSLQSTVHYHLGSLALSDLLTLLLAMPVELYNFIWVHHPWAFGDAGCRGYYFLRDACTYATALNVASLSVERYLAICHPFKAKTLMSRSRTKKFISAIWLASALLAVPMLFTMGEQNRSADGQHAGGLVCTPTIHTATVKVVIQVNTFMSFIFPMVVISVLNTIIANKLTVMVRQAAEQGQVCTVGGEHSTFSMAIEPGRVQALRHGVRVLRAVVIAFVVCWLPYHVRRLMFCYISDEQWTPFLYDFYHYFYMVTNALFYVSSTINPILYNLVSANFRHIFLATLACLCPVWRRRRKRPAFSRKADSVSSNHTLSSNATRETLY

[4] = target: Cytochrome P450 2C9 (Homo sapiens, UniProt P11712)
Chain of Cytochrome P450 2C9 (P11712 whole entry): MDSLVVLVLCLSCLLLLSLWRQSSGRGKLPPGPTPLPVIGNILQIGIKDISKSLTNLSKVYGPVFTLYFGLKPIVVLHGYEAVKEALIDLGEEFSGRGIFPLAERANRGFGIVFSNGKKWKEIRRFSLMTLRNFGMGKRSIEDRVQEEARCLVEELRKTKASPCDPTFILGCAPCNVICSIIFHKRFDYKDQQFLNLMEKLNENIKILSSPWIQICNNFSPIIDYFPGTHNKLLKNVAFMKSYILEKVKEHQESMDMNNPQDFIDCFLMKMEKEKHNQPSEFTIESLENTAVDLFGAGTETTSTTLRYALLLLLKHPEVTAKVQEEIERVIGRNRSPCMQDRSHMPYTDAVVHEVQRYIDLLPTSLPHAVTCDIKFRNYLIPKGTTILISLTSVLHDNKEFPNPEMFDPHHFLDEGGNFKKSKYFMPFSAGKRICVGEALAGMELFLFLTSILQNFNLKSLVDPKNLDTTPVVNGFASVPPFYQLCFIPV

[5] = target: T2, ORF 73 (Human herpesvirus 8, UniProt O40947); assay: KSHV LANA DNA-binding disruption – biochemical, fluorescence polarization, cherry-picked samples, dose response (AID 504725); set-up: species or system Human gammaherpesvirus 8;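 note: fluorescence polarization of a labeled DNA duplex reporting LANA DNA binding; potency is for inhibitors that block LANA binding to the DNA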
T2 sequence (O40947 whole entry): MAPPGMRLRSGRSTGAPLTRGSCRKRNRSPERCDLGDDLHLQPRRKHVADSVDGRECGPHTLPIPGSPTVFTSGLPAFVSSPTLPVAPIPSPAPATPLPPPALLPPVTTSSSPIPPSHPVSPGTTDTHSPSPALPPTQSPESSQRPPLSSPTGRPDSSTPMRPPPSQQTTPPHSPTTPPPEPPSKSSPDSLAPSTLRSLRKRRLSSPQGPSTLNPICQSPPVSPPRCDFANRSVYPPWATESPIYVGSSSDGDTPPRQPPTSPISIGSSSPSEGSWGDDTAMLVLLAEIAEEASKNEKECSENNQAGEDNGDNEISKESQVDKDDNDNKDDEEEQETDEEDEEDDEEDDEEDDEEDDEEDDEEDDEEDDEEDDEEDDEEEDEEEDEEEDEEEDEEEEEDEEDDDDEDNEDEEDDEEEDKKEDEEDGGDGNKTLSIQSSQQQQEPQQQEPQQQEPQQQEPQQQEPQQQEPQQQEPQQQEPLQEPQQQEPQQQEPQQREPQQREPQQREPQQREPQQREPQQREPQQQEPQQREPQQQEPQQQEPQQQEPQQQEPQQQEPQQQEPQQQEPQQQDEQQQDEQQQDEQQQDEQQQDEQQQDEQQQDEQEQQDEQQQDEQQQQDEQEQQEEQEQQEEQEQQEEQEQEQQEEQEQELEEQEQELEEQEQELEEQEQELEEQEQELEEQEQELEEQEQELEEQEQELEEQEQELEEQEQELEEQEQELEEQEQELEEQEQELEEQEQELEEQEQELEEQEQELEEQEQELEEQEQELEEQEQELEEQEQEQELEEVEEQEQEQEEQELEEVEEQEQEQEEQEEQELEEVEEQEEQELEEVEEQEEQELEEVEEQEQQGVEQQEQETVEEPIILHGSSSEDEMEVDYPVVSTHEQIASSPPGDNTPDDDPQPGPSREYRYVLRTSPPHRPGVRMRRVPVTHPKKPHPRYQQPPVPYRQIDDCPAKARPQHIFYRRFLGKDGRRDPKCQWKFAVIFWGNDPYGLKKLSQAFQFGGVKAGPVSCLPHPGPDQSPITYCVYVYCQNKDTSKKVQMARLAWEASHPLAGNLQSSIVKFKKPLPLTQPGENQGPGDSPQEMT

[6] = target: Cystic fibrosis transmembrane conductance regulator/Golgi-associated PDZ and coiled-coil motif-containing protein (Homo sapiens, UniProt P13569+Q9HD26); assay: potency against CAL PDZ-peptide interaction – biochemical, fluorescence polarization, Cerulean-tagged CAL PDZ, cherry-picks, dose response (AID 504773)
Chain of Cystic fibrosis transmembrane conductance regulator/Golgi-associated PDZ and coiled-coil motif-containing protein (P13569 whole entry, other chains not shown): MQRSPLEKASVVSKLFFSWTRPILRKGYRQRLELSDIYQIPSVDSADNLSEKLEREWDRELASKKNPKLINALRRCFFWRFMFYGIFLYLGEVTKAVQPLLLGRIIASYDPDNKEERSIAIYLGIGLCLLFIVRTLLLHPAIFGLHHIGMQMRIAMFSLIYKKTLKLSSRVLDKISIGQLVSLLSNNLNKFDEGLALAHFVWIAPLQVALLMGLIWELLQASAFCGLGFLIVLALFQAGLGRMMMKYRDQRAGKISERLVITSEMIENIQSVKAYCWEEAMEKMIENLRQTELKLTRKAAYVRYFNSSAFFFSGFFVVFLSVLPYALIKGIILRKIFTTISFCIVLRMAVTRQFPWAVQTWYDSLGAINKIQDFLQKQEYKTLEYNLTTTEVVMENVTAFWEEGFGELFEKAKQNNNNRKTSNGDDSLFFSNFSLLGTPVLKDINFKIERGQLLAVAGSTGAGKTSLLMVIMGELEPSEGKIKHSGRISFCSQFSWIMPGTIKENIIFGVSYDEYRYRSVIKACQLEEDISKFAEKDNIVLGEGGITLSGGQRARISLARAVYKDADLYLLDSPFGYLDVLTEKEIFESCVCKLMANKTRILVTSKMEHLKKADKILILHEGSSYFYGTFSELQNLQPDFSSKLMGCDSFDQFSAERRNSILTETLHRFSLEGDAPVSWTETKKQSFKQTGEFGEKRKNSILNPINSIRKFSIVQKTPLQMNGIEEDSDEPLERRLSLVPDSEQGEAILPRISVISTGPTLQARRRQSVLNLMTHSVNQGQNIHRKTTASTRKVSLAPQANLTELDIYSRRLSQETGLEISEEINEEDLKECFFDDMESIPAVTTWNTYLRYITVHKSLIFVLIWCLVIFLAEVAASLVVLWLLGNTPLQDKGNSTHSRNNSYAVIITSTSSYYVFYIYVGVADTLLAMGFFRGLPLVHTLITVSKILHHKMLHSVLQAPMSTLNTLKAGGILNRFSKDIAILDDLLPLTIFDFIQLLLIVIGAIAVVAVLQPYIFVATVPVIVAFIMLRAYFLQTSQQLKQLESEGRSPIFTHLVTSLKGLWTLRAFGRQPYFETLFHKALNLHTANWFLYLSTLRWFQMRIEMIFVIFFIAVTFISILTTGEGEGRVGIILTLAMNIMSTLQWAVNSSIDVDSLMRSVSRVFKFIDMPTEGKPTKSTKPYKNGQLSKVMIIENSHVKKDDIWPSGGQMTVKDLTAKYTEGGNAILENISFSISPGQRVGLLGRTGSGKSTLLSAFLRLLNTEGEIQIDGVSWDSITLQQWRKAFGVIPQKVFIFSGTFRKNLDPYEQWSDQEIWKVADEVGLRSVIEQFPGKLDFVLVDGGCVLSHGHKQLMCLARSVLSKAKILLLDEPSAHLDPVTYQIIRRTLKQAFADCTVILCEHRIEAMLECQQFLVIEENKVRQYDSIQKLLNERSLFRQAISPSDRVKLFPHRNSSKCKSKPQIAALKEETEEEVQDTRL

[7] = target: Nonstructural protein 1 (Influenza A virus, UniProt Q194T2); assay type: functional, Influenza A virus (A/California/07/2009(H1N1))
Chain of Nonstructural protein 1 (Q194T2 whole entry): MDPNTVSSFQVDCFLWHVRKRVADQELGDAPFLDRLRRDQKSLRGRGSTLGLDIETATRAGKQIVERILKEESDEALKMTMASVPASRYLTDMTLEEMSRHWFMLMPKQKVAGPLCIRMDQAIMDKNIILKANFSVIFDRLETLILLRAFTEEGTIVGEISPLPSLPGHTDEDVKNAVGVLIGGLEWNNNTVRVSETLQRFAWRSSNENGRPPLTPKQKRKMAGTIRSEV

[8] = tested on: HeLa; assay: viability loss in HeLa cells – cell-based, 24 h, cherry-picked samples, cytotoxicity control, dose response (AID 504726); assay type: functional; conditions: Homo sapiens;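 note: potency for cytotoxicity as loss of luminescence signal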
[9] = target: Eukaryotic translation initiation factor 4E (Mus musculus, UniProt P63073); assay: blockers of eIF4G binding by eIF4E – biochemical, TR-FRET, dose response (AID 855); assay type: functional;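 note: potency for disrupting eIF4E binding to eIF4GI seen as loss of FRET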
Chain of Eukaryotic translation initiation factor 4E (P63073 whole entry): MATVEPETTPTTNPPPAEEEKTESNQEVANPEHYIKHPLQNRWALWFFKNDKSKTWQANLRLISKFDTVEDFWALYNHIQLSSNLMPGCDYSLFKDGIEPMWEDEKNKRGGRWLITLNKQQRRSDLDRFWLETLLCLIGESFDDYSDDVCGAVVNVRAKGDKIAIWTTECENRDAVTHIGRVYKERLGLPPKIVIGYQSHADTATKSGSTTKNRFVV

[10] = THP-1 cell cytotoxicity, dose response, cytotoxicity control for non-replicating M. tuberculosis project (AID 489025); assay type: functional
[11] = tested on: BJ; assay: BJ-TERT-LT-ST fibroblast viability loss – cell-based, RAS-independent, luminescence, dose response (AID 1935); assay type: functional; conditions: Homo sapiens;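 note: BJ fibroblasts immortalized with TERT plus LT and ST oncogenes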
[12] = cells; assay type: functional
[13] = DRD fibroblast viability loss – cell-based, non-viral oncogenic, luminescence, dose response (AID 1934); assay type: functional; conditions: Homo sapiens
[14] = tested on: BJ; assay: BJ-TERT fibroblast viability loss – cell-based, RAS-independent, luminescence, dose response (AID 1933); assay type: functional; conditions: Homo sapiens
[15] = tested on: BJ; assay: cells; assay type: functional, cell-based; conditions: Homo sapiens
[16] = Vero E6 cell cytotoxicity, dose response, cytotoxicity control for non-replicating M. tuberculosis project, secondary assay (AID 492998); assay type: functional, VeroE6; conditions: Vero C1008
[17] = Luminescence Cell-Based Dose Retest to Confirm Inhibitors of Cancer Stem Cells. [Related pubchem assays (depositor defined):AID2717, AID2721]; assay type: functional, Homo sapiens; conditions: Homo sapiens

Row | Compound | AC50 [1] | IC50 [2] | EC50 [3] | AC50 [4] | AC50 [5] | AC50 [6] | IC50 [7] | AC50 [8] | IC50 [9] | CC50 [10] | EC50 [11] | IC50 [12] | EC50 [13] | EC50 [14] | EC50 [15] | CC50 [16] | AC50 [17]
1 | C/C(=C\c1ccc(N(C)C)cc1)[N+](=O)[O-] | 13.1 µM (active) | 0.653 µM (active) | 4.26 µM (active) | 31.6 µM (inconclusive) |  |  |  |  |  |  |  |  |  |  |  |  | 
2 | COc1ccc(OC)c(-c2c3cc(O)c(=O)cc-3oc3cc(O)c(O)cc23)c1 |  |  |  |  | 1.56 µM (active) | 13.3 µM (active) | 20.3 µM (active) | 135 µM (active) | 15.7 µM (active) |  |  |  |  |  |  |  | 
3 | O=C1NC(=O)N(CCc2ccc(F)cc2)C(=O)/C1=C/C=C/c1ccccc1 |  |  | 39.3 µM (inactive) |  |  |  |  |  |  | 5.09 µM (active) | 11.6 µM (inconclusive) | 48.4 µM (active) | 5.39 µM (inconclusive) | 5.32 µM (inconclusive) | > 150 µM (not active) | 16.8 µM (active) | 1.05 µM (active)
